Measurements as given in US8173626B2, “Methods, dosing regimens and medications using anti-progestational agents for the treatment of disorders” (Danco Laboratories LLC, priority 2006, dated 2012).

Legend:
[1] = test system: breakthrough uterine bleeding in new starters of DMPA; experiment: Mifepristone for prevention of breakthrough bleeding in new starters of DMPA (Example 9); assay type: in vivo, human; conditions: 50 mg capsule every 14 days with DMPA
uterine leiomyomata [2] = experiment: Randomized, double-blinded, placebo-controlled study of mifepristone 5 mg daily for symptomatic uterine leiomyomata (Example 11); assay type: in vivo, human
Text: The Study and Results are described in […] et al., Obstetrics & Gynecology, 108(6) (2006), hereby incorporated by reference in its entirety. […] Women were excluded if they were pregnant or intended to become pregnant during the next 6 months or had major medical morbidity or severe anemia, active mental illness, elevated liver enzymes, or substance abuse. Participants agreed to use barrier contraception and not to use hormonal or surgical treatments for leiomyomata during the course of the trial. Analgesic use was permitted. […] Secondary measures included global health status (Medical Outcomes 36-item Short Form [SF-36] survey) and global pain (McGill Pain Questionnaire). Each questionnaire was administered at baseline, 1 month, 3 months, and 6 months, except the McGill Pain Questionnaire, which was assessed monthly. Bleeding was assessed by using daily menstrual logs and pictorial bleeding charts. A monthly blood loss index was calculated from menstrual history by assigning values […] to each day of spotting, indicating light, moderate, and heavy flow, respectively, and then summing the results. Monthly assessments of the presence and intensity of likely leiomyoma symptoms (including pelvic pain, pelvic pressure, bladder pressure, urinary frequency, low back pain, rectal pain, and pain with intercourse) and drug adverse effects (including hot flushes, headache, nausea, vomiting, mood swings, diarrhea, decreased libido, weakness, fatigue, and nervousness) were performed with a standardized instrument consisting of 5-point Likert scale items. […] The uterus was measured in three planes and a total volume calculated. The five largest leiomyomata were identified, a volume calculated for each of the leiomyomata, and the results summed. Baseline uterine volume was subtracted from each subsequently measured uterine volume, and volume changes were analyzed. The final analysis was powered to detect a 25-point difference in mean Uterine Fibroid Symptom Quality of Life scores. Differences in Uterine Fibroid Symptom Quality of Life scores, ultrasound measures, bleeding, pain, and other longitudinal measures were assessed by using individual growth curve models. […] Approximate t tests were used to test hypotheses of between-group and within-group differences in outcomes.

[3] = target: glucocorticosteroid receptor (GR) (Homo sapiens, UniProt P04150); conditions: cited from earlier work
[4] = test system: endometrial receptors and breakthrough bleeding; conditions: women on Norplant, mifepristone orally; Cheng et al.; cited from earlier work
uterine leiomyomata [5] = conditions: cited from earlier work
uterine leiomyomata [6] = experiment: Clinical study of 2.5 mg mifepristone for the treatment of uterine leiomyomata (Example 1); assay type: in vivo, human; conditions: 2.5 mg daily, three months
Method: The study was conducted at a single site in Rochester, N.Y. Subjects: Inclusion criteria for the study included that subjects be (i) female; (ii) 18 years of age to premenopausal; and (iii) willing and able to give informed consent and comply with study requirements; and have (i) at least moderate symptoms of menorrhagia and/or pelvic pain/pressure; (ii) a total uterine volume greater than or equal to 160 cubic centimeters (cc) by ultrasound measurement; (iii) at least one leiomyomata ≧2.5 cm in size; (iv) a score of equal to or greater than 39 on the Uterine Fibroid Symptom and Quality of Life Scale; (v) declined standard treatment options for symptomatic leiomyomata; and (vi) agreed to use a barrier method (condoms, diaphragms) or other effective non-hormonal method of contraception (abstinence, sterilization) throughout participation in the study. Exclusion criteria for the study included: (i) current or planned pregnancy during the study period; (ii) menopausal, as indicated by follicle-stimulating hormone (FSH) level of the reference laboratory; (iii) currently breast-feeding; (iv) untreated abnormal pap smear; (v) presence of conditions other than leiomyomata contributing to pain and/or bleeding; (vi) hemoglobin […]; (vii) presence of […] masses or tenderness requiring further evaluation or surgery; (viii) grade III or IV hydronephrosis by ultrasound; (ix) severe, active mental disorder; […] (xi) current or recent (within the last three months) use of oral systemic corticosteroids, hormones (including estrogens, progestins, oral contraceptives), danazol, anticoagulants, or herbal or botanical supplements with possible hormonal effects; (xii) use within the past six months of GnRH analogs or Depo-Provera®; and (xiii) current or planned use during the study of any of the following medications or products: ketoconazole, itraconazole, erythromycin, grapefruit juice, rifampin, St. John's Wort, phenytoin, phenobarbital or carbamazepine Primary recruitment of subjects occurred through direct advertising and physician referrals. Women who were successfully prescreened were contacted by telephone and invited to an screening session/orientation. Prospective subjects were provided with a verbal and written description of the study and requirements for participation. Written informed consent was obtained from each participant at the screening session/orientation, and medical record releases were obtained and reviewed by the project gynecologist. Participants who gave consent were assigned a study ID number and asked to proceed further with the screening session. […] During the screening session the following information was collected: Physical Examination: Height, weight, blood pressure, pulse readings, examination of the breasts, heart, lungs, abdomen, and complete gynecologic examination including bi-manual at screening session/orientation (baseline). Height, weight, blood pressure, pulse readings and examination of the breasts. Blood samples: Negative pregnancy test and normal liver function testing (ALT, AST), hemoglobin and FSH levels. Ultrasonography: All subjects underwent abdominal and vaginal ultrasonography and uterine artery and leiomyomata blood flow assessment. Specifically, uterine leiomyomata size was assessed by transabdominal and/or transvaginal sonography by a single, certified and experienced ultrasonographer. Combined abdominal and vaginal ultrasonography was the standard for assessing leiomyomata size. […]

Sequence of glucocorticosteroid receptor (GR) (P04150 whole entry): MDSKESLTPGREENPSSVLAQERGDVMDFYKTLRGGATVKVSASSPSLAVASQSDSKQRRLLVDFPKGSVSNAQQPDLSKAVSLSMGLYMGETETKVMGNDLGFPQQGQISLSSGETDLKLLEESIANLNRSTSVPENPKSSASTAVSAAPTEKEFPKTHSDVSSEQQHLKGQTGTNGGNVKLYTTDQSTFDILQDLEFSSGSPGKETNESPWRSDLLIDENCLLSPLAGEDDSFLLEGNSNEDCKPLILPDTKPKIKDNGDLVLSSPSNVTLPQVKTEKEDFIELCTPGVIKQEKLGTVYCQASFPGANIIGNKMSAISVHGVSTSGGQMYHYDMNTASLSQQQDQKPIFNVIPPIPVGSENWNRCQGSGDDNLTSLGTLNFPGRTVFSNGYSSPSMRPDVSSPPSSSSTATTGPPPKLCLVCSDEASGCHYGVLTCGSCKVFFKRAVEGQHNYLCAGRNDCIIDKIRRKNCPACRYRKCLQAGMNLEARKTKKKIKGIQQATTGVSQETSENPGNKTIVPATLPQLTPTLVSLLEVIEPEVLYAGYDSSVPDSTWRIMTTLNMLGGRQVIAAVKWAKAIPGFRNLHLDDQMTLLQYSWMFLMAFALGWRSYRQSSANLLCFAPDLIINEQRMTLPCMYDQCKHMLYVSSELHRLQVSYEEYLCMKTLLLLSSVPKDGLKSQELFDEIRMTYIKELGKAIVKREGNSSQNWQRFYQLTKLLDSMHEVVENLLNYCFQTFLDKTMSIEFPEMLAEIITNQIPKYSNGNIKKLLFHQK

SMILES: CC#C[C@]1(O)CC[C@H]2[C@@H]3CCC4=CC(=O)CCC4=C3[C@@H](c3ccc(N(C)C)cc3)C[C@@]21C [mifepristone, 17-hydroxy-11-(4-dimethylaminophenyl)-17-(prop-1-ynyl)estra-4,9-dien-3-one]
- median percentage days of bleeding ([1]; 1232 women-days, placebo 30%, p<0.05, results to date): 11%
- adverse events ([1]; to date): no adverse events have occurred
- period in which most of the improvement in symptoms and quality of life occurred (uterine leiomyomata [2]; 5 mg daily for 26 weeks, first weeks of treatment): 8-12 weeks
- SF-36 subscales (uterine leiomyomata [2]; 5 mg daily, 6 months): improvements in energy and fatigue, health status change, and pain
- endometrial hyperplasia or other significant endometrial pathology (uterine leiomyomata [2]; 5 mg daily, 6 months): No endometrial hyperplasia or other significant endometrial pathology was observed
- liver function (uterine leiomyomata [2]; 5 mg daily, 6 months): None of the participants showed abnormal liver function
- reduction in leiomyoma size vs placebo (uterine leiomyomata [2]; 5 mg daily, 6 months): statistically significant differences in reduction in leiomyoma size
- leiomyoma-specific quality of life and aspects (concern, activities, energy and mood, control, self-consciousness, sexual functioning) vs placebo (uterine leiomyomata [2]; 5 mg daily, 6 months, P<0.001 overall): Significant improvements
- average decrease of uterine volume (uterine leiomyomata [2]; 5 mg daily, 6 months, P=0.02, placebo increased 73 mL): 200 mL
- pain, McGill Pain Questionnaire (uterine leiomyomata [2]; 5 mg daily, 6 months, difference to placebo not statistically significant): decreases in pain
- mean hemoglobin level after treatment (uterine leiomyomata [2]; 5 mg daily, 6 months, from 12.0 g/dL, P<0.001): 13.5 g/dL
- potential medication adverse effects (uterine leiomyomata [2]; 5 mg daily, 6 months, incidence and severity not statistically different from placebo): uncommon
- tolerability (uterine leiomyomata [2]; 5 mg daily, 6 months, low dropout rate): well tolerated
- bleeding (uterine leiomyomata [2]; 5 mg daily, 6 months, not in placebo group): decreased markedly
- mean Uterine Fibroid Symptoms Quality of Life increase (uterine leiomyomata [2]; 5 mg daily, 6 months, of a possible 100 points, range 0-86, placebo 16.7): 50.1 points
- mean Uterine Fibroid Symptoms Quality of Life increase, percent (uterine leiomyomata [2]; 5 mg daily, 6 months, placebo 41%): 135%
- average decrease of uterine volume adjusted for individual baseline volume (uterine leiomyomata [2]; 5 mg daily, 6 months, secondary regression, placebo increased 10%): 47%
- cystic glandular dilatation of the endometria (uterine leiomyomata [2]; 5 mg daily, 6 months, treated women vs placebo): Higher rates
- women anemic (hemoglobin below 12.0 g/dL) after six months (uterine leiomyomata [2]; 5 mg daily, 2 of 22, baseline 11 of 22 (50%), control 60%): 9%
- women amenorrheic by the sixth month (uterine leiomyomata [2]; 5 mg daily, 9 of 22 women, none in placebo group): 41%
- symptom severity score at 6 months (uterine leiomyomata [2]; 5 mg daily, from 67 at baseline, placebo 67 to 50): 21
- monthly reports of symptoms (pelvic pain, pelvic pressure, bladder pressure, urinary frequency, low back pain, rectal pain, pain with intercourse) (uterine leiomyomata [2]; 5 mg daily, group difference significant only for pain with intercourse (P<0.05)): all showed improvements
- affinity for the glucocorticosteroid receptor (GR) [3]: high affinity
- breakthrough bleeding [4]: decreased breakthrough bleeding
- endometrial estrogen receptor concentration [4]: increased endometrial estrogen receptor concentration
- endometrial progesterone receptor concentration [4]: decreased endometrial progesterone receptor concentration
- effectiveness (uterine leiomyomata [5]; 5 mg administered for 6 months, Eisinger et al.): confirmed the effectiveness
- uterine leiomyomata size (uterine leiomyomata [5]; Eisinger et al. 2003): reduce uterine leiomyomata size
- uterine shrinkage and rates of amenorrhea compared with GnRH agonists (uterine leiomyomata [5]; Kettel et al., Murphy et al.): equivalent amount of uterine shrinkage and rates of amenorrhea to GnRH agonists
- side effects of the lower described doses (uterine leiomyomata [5]; doses such as 10 mg): increased hot flashes
- side effects of the highest described doses (uterine leiomyomata [5]; doses such as 50 mg): can increase the prevalence and severity of hot flashes, can cause an elevation in hepatic enzymes
- amenorrhea (uterine leiomyomata [6]): all subjects became amenorrheic
- mean decrease in leiomyomata volume (uterine leiomyomata [6]): 26%
- mean decrease in uterine volume (uterine leiomyomata [6]): 19%
- mean leiomyomata volume (aggregated) after treatment (uterine leiomyomata [6]; baseline 187): 139
- mean uterine volume after treatment (uterine leiomyomata [6]; baseline 795 cc): 653 cc
